Data set [1] has as its system sheep testicular hyaluronidase. The experiment in a line: hyaluronidase inhibition (hyaluronic acid hydrolysis). It is filed as biochemical. To be noted: 10 minutes preincubation, pH 5.5; inactive = no inhibition at 1 mg/ml. As for the experimental part:
Hyaluronidase activity was quantitatively determined by measuring the extent of hyaluronic acid hydrolysis (i.e., the concentration of N-acetylglucosamine-reactive material formed from enzyme activity). Reaction mixtures (0.25 ml) containing the following were prepared: test compound (variable concentration); 0.1 M sodium acetate; 0.15 M sodium chloride; pH adjusted to 5.5; 7.2 units sheep testicular hyaluronidase (Sigma, Type III; H-2251) contained in an acetate buffer; 0.3 mg/ml hyaluronic acid (Sigma, from bovine vitreous humor; H-7630). The enzyme was preincubated with the test agent (1 mg/ml for screening purposes) for 10 minutes before starting the reaction by the addition of hyaluronic acid. The enzyme reaction was determined using the method of Aronson and Davidson (J. Biol. Chem. 241 437-440 (1967)). The reaction mixture was incubated for 30 minutes at room temperature. The reaction product was determined calorimetrically with p-dimethylaminobenzaldehyde (Reissig et al., J. Biol. Chem. 217 959-966 (1965)) by measuring the absorbance at 545 nm.
The reversibility of the hyaluronidase was determined by evaluating enzyme activity at different levels of enzyme (Ackermann and Potter, Proc. Soc. Exp. Biol. Med. 72 1-9 (1949)).

A further data set has as its system Lactobacillus gasseri. The experiment in a line: effect on normal vaginal flora (Lactobacillus gasseri growth). It is filed as cell-based. To be noted: 0.5 mg/ml. As for the experimental part: This example illustrates the effect of the inhibitory agents of this invention on the normal vaginal flora. Lactobacillus gasseri, which is found in normal vaginal flora, was obtained from the American Type Culture Collection (Rockville, Md.) and cultured under anaerobic conditions at 37° C. in the presence of the desired test agents. Control samples without added test agents were also run. Samples were collected at twenty minute intervals starting at 120 minutes after the start of incubation through 240 minutes. The absorbance at 550 nm was used to estimate the cell density and inhibitory effects. Nonoxynol-9 was also evaluated for comparison purposes.

Data set [2] concerns vaginal/cervical epithelial and other cells. To be noted: cited from earlier work.
The next data set deals with MT2 cells. The experiment in a line: cytotoxicity of test compound towards host (MT2) cells. It is filed as cell-based. As to conditions: at the levels of Example 5. As to the method: Serial dilutions of the test compounds (ranging from 0.1 μg/ml to 1.0 mg/ml) were added to HIV-1 virus such that 50 μl inoculum produced between 70 to 100 syncytia per well in untreated wells containing MT2 cells. The HIV-1 used was strain IIIs propagated in, and harvested from, a T4-lymphobastoid cell line. Each serial dilution of the test compound with virus was placed in each of three wells containing MT2 cells. The test compound alone was added to a fourth well containing MT2 cells to test for possible cytotoxicity. Triplicate virus control samples (no added test compounds but containing the equivalent amounts of the RPMI medium) were also included.

On to Nonoxynol-9, for which the IC50 hyaluronidase entry in data set [1] is “inactive”. The “inhibition of growth of Lactobacillus gasseri” value in the data set with Lactobacillus gasseri is “about 60%”. Besides, in data set [2], the “lowest concentration that can injure vaginal/cervical epithelial and other cells” value is given as “about 0.0005%”. For the same substance, the “cytotoxic towards the MT2 cells” value in the data set on MT2 cells is reported as “did show cytotoxic effects”.

The values above are taken from patent US5925621A, “Method for preventing sexually transmitted diseases” (priority 1997, dated 1999).
